In ChEMBL document CHEMBL3045112, “In vitro antimicrobial assessment of coumarin-based s-triazinyl piperazines” (2012):
Converted amounts (≈) assume the structure as drawn.

Assays:
Format in all cases: functional
[1] = system: Escherichia coli; experiment: Antibacterial activity against Escherichia coli after 24 hr by disk diffusion test
[2] = system: Pseudomonas aeruginosa; experiment: Antibacterial activity against Pseudomonas aeruginosa after 24 hr by agar plate method
[3] = system: Candida albicans; experiment: Antifungal activity against Candida albicans after 48 hr by disk diffusion test
[4] = system: Staphylococcus aureus; experiment: Antibacterial activity against Staphylococcus aureus after 24 hr by agar plate method
[5] = system: Staphylococcus aureus; experiment: Antibacterial activity against Staphylococcus aureus after 24 hr by disk diffusion test
[6] = system: Aspergillus niger; experiment: Antifungal activity against Aspergillus niger after 48 hr by disk diffusion test
[7] = system: Bacillus subtilis; experiment: Antibacterial activity against Bacillus subtilis after 24 hr by disk diffusion test
[8] = system: Aspergillus niger; experiment: Antifungal activity against Aspergillus niger after 48 hr by agar plate method
[9] = system: Pseudomonas aeruginosa; experiment: Antibacterial activity against Pseudomonas aeruginosa after 24 hr by disk diffusion test
[10] = system: Escherichia coli; experiment: Antibacterial activity against Escherichia coli after 24 hr by agar plate method
[11] = system: Candida albicans; experiment: Antifungal activity against Candida albicans after 48 hr by agar plate method
[12] = system: Bacillus subtilis; experiment: Antibacterial activity against Bacillus subtilis after 24 hr by agar plate method

Compound | inhibition zone (IZ) [1] | MIC [2] | inhibition zone (IZ) [3] | MIC [4] | inhibition zone (IZ) [5] | inhibition zone (IZ) [6] | inhibition zone (IZ) [7] | MIC [8] | inhibition zone (IZ) [9] | MIC [10] | MIC [11] | MIC [12]
CN1CCN(c2nc(Nc3ccccc3)nc(Oc3cc(=O)oc4ccccc34)n2)CC1 | 16 mm | 100 µg/mL (≈ 232 µM) | 17 mm | 100 µg/mL (≈ 232 µM) | 16 mm | 14 mm | 20 mm | 100 µg/mL (≈ 232 µM) | 17 mm | 100 µg/mL (≈ 232 µM) | 100 µg/mL (≈ 232 µM) | 100 µg/mL (≈ 232 µM)
Cc1cc(=O)oc2cc(Oc3nc(Nc4ccccc4)nc(N4CCCCC4)n3)ccc12 | 22 mm | 100 µg/mL (≈ 233 µM) | 22 mm | 50 µg/mL (≈ 116 µM) | 21 mm | 22 mm | 19 mm | 12.5 µg/mL (≈ 29.1 µM) | 21 mm | 25 µg/mL (≈ 58.2 µM) | 50 µg/mL (≈ 116 µM) | 100 µg/mL (≈ 233 µM)
Cc1cc(=O)oc2cc(Oc3nc(Nc4ccccc4)nc(N4CCOCC4)n3)ccc12 | 22 mm | 100 µg/mL (≈ 232 µM) | 22 mm | 100 µg/mL (≈ 232 µM) | 20 mm | 21 mm | 20 mm | 50 µg/mL (≈ 116 µM) | 17 mm | 50 µg/mL (≈ 116 µM) | 50 µg/mL (≈ 116 µM) | 100 µg/mL (≈ 232 µM)
Cc1cc(=O)oc2cc(Oc3nc(Nc4ccccc4)nc(N4CCN(C)CC4)n3)ccc12 | 16 mm | 100 µg/mL (≈ 225 µM) | 20 mm | 100 µg/mL (≈ 225 µM) | 19 mm | 16 mm | 21 mm | 100 µg/mL (≈ 225 µM) | 20 mm | 100 µg/mL (≈ 225 µM) | 100 µg/mL (≈ 225 µM) | 100 µg/mL (≈ 225 µM)
O=c1cc(Oc2nc(Nc3ccccc3)nc(N3CCN(c4cccc(Cl)c4)CC3)n2)c2ccccc2o1 | 22 mm | 25 µg/mL (≈ 47.4 µM) | 23 mm | 50 µg/mL (≈ 94.9 µM) | 21 mm | 20 mm | 21 mm | 50 µg/mL (≈ 94.9 µM) | 23 mm | 25 µg/mL (≈ 47.4 µM) | 12.5 µg/mL (≈ 23.7 µM) | 25 µg/mL (≈ 47.4 µM)
O=c1cc(Oc2nc(Nc3ccccc3)nc(N3CCN(c4ccccc4)CC3)n2)c2ccccc2o1 | 16 mm | 100 µg/mL (≈ 203 µM) | 16 mm | 100 µg/mL (≈ 203 µM) | 17 mm | 15 mm | 17 mm | 100 µg/mL (≈ 203 µM) | 15 mm | 100 µg/mL (≈ 203 µM) | 100 µg/mL (≈ 203 µM) | 100 µg/mL (≈ 203 µM)
Cc1cc(=O)oc2cc(Oc3nc(Nc4ccccc4)nc(N4CCN(c5ncccn5)CC4)n3)ccc12 | 21 mm | 50 µg/mL (≈ 98.3 µM) | 24 mm | 6.25 µg/mL (≈ 12.3 µM) | 24 mm | 22 mm | 24 mm | 25 µg/mL (≈ 49.2 µM) | 23 mm | 25 µg/mL (≈ 49.2 µM) | 25 µg/mL (≈ 49.2 µM) | 12.5 µg/mL (≈ 24.6 µM)
O=c1cc(Oc2nc(Nc3ccccc3)nc(N3CCN(c4ncccn4)CC3)n2)c2ccccc2o1 | 21 mm | 50 µg/mL (≈ 101 µM) | 22 mm | 12.5 µg/mL (≈ 25.3 µM) | 23 mm | 19 mm | 22 mm | 12.5 µg/mL (≈ 25.3 µM) | 20 mm | 50 µg/mL (≈ 101 µM) | 12.5 µg/mL (≈ 25.3 µM) | 12.5 µg/mL (≈ 25.3 µM)
O=c1cc(Oc2nc(Nc3ccccc3)nc(N3CCOCC3)n2)c2ccccc2o1 | 22 mm | 100 µg/mL (≈ 240 µM) | 19 mm | 100 µg/mL (≈ 240 µM) | 19 mm | 21 mm | 16 mm | 6.25 µg/mL (≈ 15 µM) | 17 mm | 25 µg/mL (≈ 59.9 µM) | 100 µg/mL (≈ 240 µM) | 100 µg/mL (≈ 240 µM)
Cc1cc(=O)oc2cc(Oc3nc(Nc4ccccc4)nc(N4CCN(c5cccc(Cl)c5)CC4)n3)ccc12 | 22 mm | 12.5 µg/mL (≈ 23.1 µM) | 25 mm | 25 µg/mL (≈ 46.2 µM) | 22 mm | 23 mm | 23 mm | 25 µg/mL (≈ 46.2 µM) | 24 mm | 25 µg/mL (≈ 46.2 µM) | 12.5 µg/mL (≈ 23.1 µM) | 50 µg/mL (≈ 92.4 µM)
CC(=O)N1CCN(c2nc(Nc3ccccc3)nc(Oc3ccc4c(C)cc(=O)oc4c3)n2)CC1 | 23 mm | 25 µg/mL (≈ 52.9 µM) | 25 mm | 25 µg/mL (≈ 52.9 µM) | 22 mm | 21 mm | 23 mm | 50 µg/mL (≈ 106 µM) | 23 mm | 12.5 µg/mL (≈ 26.5 µM) | 25 µg/mL (≈ 52.9 µM) | 50 µg/mL (≈ 106 µM)
O=c1cc(Oc2nc(Nc3ccccc3)nc(N3CCN(c4cccc(Cl)c4Cl)CC3)n2)c2ccccc2o1 | 21 mm | 12.5 µg/mL (≈ 22.3 µM) | 22 mm | 25 µg/mL (≈ 44.5 µM) | 22 mm | 20 mm | 23 mm | 12.5 µg/mL (≈ 22.3 µM) | 23 mm | 50 µg/mL (≈ 89.1 µM) | 12.5 µg/mL (≈ 22.3 µM) | 12.5 µg/mL (≈ 22.3 µM)
O=c1cc(Oc2nc(Nc3ccccc3)nc(N3CCN(c4ccccn4)CC3)n2)c2ccccc2o1 | 20 mm | 50 µg/mL (≈ 101 µM) | 21 mm | 12.5 µg/mL (≈ 25.3 µM) | 23 mm | 20 mm | 21 mm | 12.5 µg/mL (≈ 25.3 µM) | 20 mm | 25 µg/mL (≈ 50.7 µM) | 25 µg/mL (≈ 50.7 µM) | 25 µg/mL (≈ 50.7 µM)
Cc1cc(=O)oc2cc(Oc3nc(Nc4ccccc4)nc(N4CCN(c5ccccc5)CC4)n3)ccc12 | 17 mm | 100 µg/mL (≈ 197 µM) | 18 mm | 100 µg/mL (≈ 197 µM) | 17 mm | 17 mm | 20 mm | 100 µg/mL (≈ 197 µM) | 15 mm | 100 µg/mL (≈ 197 µM) | 100 µg/mL (≈ 197 µM) | 100 µg/mL (≈ 197 µM)
Cc1cc(=O)oc2cc(Oc3nc(Nc4ccccc4)nc(N4CCN(c5cccc(Cl)c5Cl)CC4)n3)ccc12 | 23 mm | 12.5 µg/mL (≈ 21.7 µM) | 25 mm | 25 µg/mL (≈ 43.4 µM) | 24 mm | 23 mm | 25 mm | 12.5 µg/mL (≈ 21.7 µM) | 24 mm | 12.5 µg/mL (≈ 21.7 µM) | 12.5 µg/mL (≈ 21.7 µM) | 12.5 µg/mL (≈ 21.7 µM)
CCN1CCN(c2nc(Nc3ccccc3)nc(Oc3cc(=O)oc4ccccc34)n2)CC1 | 15 mm | 100 µg/mL (≈ 225 µM) | 19 mm | 100 µg/mL (≈ 225 µM) | 17 mm | 17 mm | 20 mm | 100 µg/mL (≈ 225 µM) | 18 mm | 100 µg/mL (≈ 225 µM) | 100 µg/mL (≈ 225 µM) | 50 µg/mL (≈ 112 µM)
CC(=O)N1CCN(c2nc(Nc3ccccc3)nc(Oc3cc(=O)oc4ccccc34)n2)CC1 | 22 mm | 50 µg/mL (≈ 109 µM) | 20 mm | 25 µg/mL (≈ 54.5 µM) | 23 mm | 18 mm | 20 mm | 100 µg/mL (≈ 218 µM) | 22 mm | 12.5 µg/mL (≈ 27.3 µM) | 50 µg/mL (≈ 109 µM) | 100 µg/mL (≈ 218 µM)
CCN1CCN(c2nc(Nc3ccccc3)nc(Oc3ccc4c(C)cc(=O)oc4c3)n2)CC1 | 16 mm | 100 µg/mL (≈ 218 µM) | 20 mm | 100 µg/mL (≈ 218 µM) | 17 mm | 20 mm | 21 mm | 100 µg/mL (≈ 218 µM) | 21 mm | 100 µg/mL (≈ 218 µM) | 100 µg/mL (≈ 218 µM) | 50 µg/mL (≈ 109 µM)
Cc1cc(=O)oc2cc(Oc3nc(Nc4ccccc4)nc(N4CCN(c5ccccn5)CC4)n3)ccc12 | 22 mm | 50 µg/mL (≈ 98.5 µM) | 23 mm | 12.5 µg/mL (≈ 24.6 µM) | 23 mm | 23 mm | 24 mm | 12.5 µg/mL (≈ 24.6 µM) | 22 mm | 25 µg/mL (≈ 49.3 µM) | 25 µg/mL (≈ 49.3 µM) | 12.5 µg/mL (≈ 24.6 µM)
Cc1cc(=O)oc2cc(Oc3nc(Nc4ccccc4)nc(N4CCN(C(C)C)CC4)n3)ccc12 | 18 mm | 100 µg/mL (≈ 212 µM) | 19 mm | 100 µg/mL (≈ 212 µM) | 19 mm | 19 mm | 18 mm | 100 µg/mL (≈ 212 µM) | 18 mm | 100 µg/mL (≈ 212 µM) | 100 µg/mL (≈ 212 µM) | 100 µg/mL (≈ 212 µM)
CC(C)N1CCN(c2nc(Nc3ccccc3)nc(Oc3cc(=O)oc4ccccc34)n2)CC1 | 18 mm | 100 µg/mL (≈ 218 µM) | 17 mm | 100 µg/mL (≈ 218 µM) | 20 mm | 21 mm | 18 mm | 25 µg/mL (≈ 54.5 µM) | 18 mm | 100 µg/mL (≈ 218 µM) | 100 µg/mL (≈ 218 µM) | 50 µg/mL (≈ 109 µM)
O=c1cc(Oc2nc(Nc3ccccc3)nc(N3CCCCC3)n2)c2ccccc2o1 | 22 mm | 100 µg/mL (≈ 241 µM) | 20 mm | 100 µg/mL (≈ 241 µM) | 19 mm | 21 mm | 20 mm | 12.5 µg/mL (≈ 30.1 µM) | 16 mm | 25 µg/mL (≈ 60.2 µM) | 100 µg/mL (≈ 241 µM) | 50 µg/mL (≈ 120 µM)
